Publication PMC7531004, “Discovery of gramicidin A analogues with altered activities by multidimensional screening of a one-bead-one-compound library” (Nature Communications, 2020)
Where a SMILES comes first, the peptide text is derived from it. [ ]: non-standard residue; d: D form. The star is where a group is joined. NHCH2CH2OH = OCCN*; For = O=C*

Legend:
[1] = H+/Na+ transport assay of bead-derived peptides (one-point); type: biochemical; set-up: key: relative activity; mean of two control wells = 1.00; settings: bead-derived peptide solution, EYPC/EYPG LUVs;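 also: relative to parent gramicidin A activity set to 1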
In short: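 One-point screen: peptide + pyranine-loaded LUVs, 30 min RT with vortexing, 96-well. Read-out is fluorescence intensity scaled as 100 × (Ix – I0)/(Imax – I0). Imax from Triton X-100, I0 from untreated vesicles, and the mean of the two control wells is set to 1.00.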

[2] = test system: P388 mouse leukemia cells; settings: 92 h
In short: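 Peptide stocks diluted 250× in growth medium; P388 cells 1 × 10^4 cells/mL final; 37 °C, 5% CO2, 92 h. WST-1 + 1-methoxy PMS, 4 h, A415. Output: % viability.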

[3] = test system: Streptococcus pyogenes SSI-9; experiment: Antibacterial activity assay of bead-derived peptides (three concentrations); type: cell-based; set-up: key: +++: inhibition by the 640-fold diluted peptide solution; ++: inhibition by the 160-fold diluted solution; +: inhibition by the 40-fold diluted solution; -: no inhibition; settings: S. pyogenes, bead-derived peptide solution, three concentrations
In short: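 Growth inhibition scored visually as precipitated bacteria after 37 °C, 18 h incubation. Streptococcus pyogenes SSI-9 inoculum of 2 × 10^5 CFU in Ca2+/Mg2+-adjusted Mueller Hinton broth plus 5% laked horse blood; peptides tested at three levels: stock, 4-fold and 16-fold DMSO dilutions.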

| Structure (SMILES) | H+/Na+ transport activity normalized against the value of 1 (1.00) [1] | cell viability/% [2] [%] | antibacterial activity [3] |
| --- | --- | --- | --- |
| CC(C)C[C@@H](NC(=O)[C@H](Cc1c[nH]c2ccccc12)NC(=O)[C@H](NC(=O)[C@H](Cc1c[nH]c2ccccc12)NC(=O)[C@@H](CC(C)C)NC(=O)[C@H](Cc1c[nH]c2ccccc12)NC(=O)[C@@H](CC(C)C)NC(=O)[C@@H](NC(=O)[C@H](NC(=O)[C@H](C)NC(=O)[C@H](NC(=O)[C@H](C)NC(=O)CNC(=O)[C@@H](NC=O)C(C)C)[C@H](C)O)C(C)C)C(C)C)C(C)C)C(=O)N[C@@H](Cc1c[nH]c2ccccc12)C(=O)NCCO [compound 4440] (For-VGA[dT]A[dV]V[dL]W[dL]W[dV]W[dL]W-NHCH2CH2OH) | 1.15 | 85.6 | - |
| CNC(=O)C[C@@H](NC(=O)[C@@H](NC(=O)[C@H](NC(=O)[C@H](C)NC(=O)[C@H](NC(=O)[C@H](C)NC(=O)CNC(=O)[C@@H](NC=O)C(C)C)C(C)C)C(C)C)C(C)C)C(=O)N[C@@H](Cc1c[nH]c2ccccc12)C(=O)N[C@H](CC(C)C)C(=O)N[C@@H](Cc1c[nH]c2ccccc12)C(=O)N[C@H](CC(C)C)C(=O)N[C@@H](Cc1c[nH]c2ccccc12)C(=O)N[C@@H](C(=O)N[C@@H](Cc1c[nH]c2ccccc12)C(=O)NCCO)C(C)C [compound 5771] (For-VGA[dV]A[dV]V[dD](NHMe)W[dL]W[dL]W[dV]W-NHCH2CH2OH) | 1.46 | 79.3 | - |
| CC(C)C[C@@H](NC(=O)[C@@H](NC(=O)[C@H](NC(=O)[C@H](C)NC(=O)[C@H](NC(=O)[C@H](C)NC(=O)CNC(=O)[C@@H](NC=O)C(C)C)[C@H](C)O)C(C)C)C(C)C)C(=O)N[C@@H](Cc1c[nH]c2ccccc12)C(=O)N[C@@H](C(=O)N[C@@H](Cc1c[nH]c2ccccc12)C(=O)N[C@@H](C(=O)N[C@@H](Cc1c[nH]c2ccccc12)C(=O)N[C@@H](C(=O)N[C@@H](Cc1c[nH]c2ccccc12)C(=O)NCCO)C(C)C)C(C)C)C(C)C [compound 3631] (For-VGA[dT]A[dV]V[dL]W[dV]W[dV]W[dV]W-NHCH2CH2OH) | 1.02 | 100.0 | - |
| CC(C)C[C@@H](NC(=O)[C@H](C)NC(=O)CNC(=O)[C@@H](NC=O)C(C)C)C(=O)N[C@@H](C)C(=O)N[C@@H](C(=O)N[C@H](C(=O)N[C@@H](C(=O)N[C@@H](Cc1c[nH]c2ccccc12)C(=O)N[C@@H](C(=O)N[C@@H](Cc1c[nH]c2ccccc12)C(=O)N[C@H](CC(C)C)C(=O)N[C@@H](Cc1c[nH]c2ccccc12)C(=O)N[C@@H](C(=O)N[C@@H](Cc1c[nH]c2ccccc12)C(=O)NCCO)C(C)C)C(C)C)C(C)C)C(C)C)[C@H](C)O [compound 9030] (For-VGA[dL]A[dT]V[dV]W[dV]W[dL]W[dV]W-NHCH2CH2OH) | 1.12 | 71.3 | - |
| CNC(=O)C[C@@H](NC(=O)[C@H](Cc1c[nH]c2ccccc12)NC(=O)[C@H](NC(=O)[C@H](Cc1c[nH]c2ccccc12)NC(=O)[C@@H](CC(C)C)NC(=O)[C@H](Cc1c[nH]c2ccccc12)NC(=O)[C@H](NC(=O)[C@@H](NC(=O)[C@@H](CC(C)C)NC(=O)[C@H](C)NC(=O)[C@H](NC(=O)[C@H](C)NC(=O)CNC(=O)[C@@H](NC=O)C(C)C)C(C)C)C(C)C)C(C)C)C(C)C)C(=O)N[C@@H](Cc1c[nH]c2ccccc12)C(=O)NCCO [compound 9727] (For-VGA[dV]A[dL]V[dV]W[dL]W[dV]W[dD](NHMe)W-NHCH2CH2OH) | 1.10 | 100.0 | - |
| CNC(=O)C[C@@H](NC(=O)[C@@H](NC(=O)[C@H](NC(=O)[C@H](C)NC(=O)[C@H](NC(=O)[C@H](C)NC(=O)CNC(=O)[C@@H](NC=O)C(C)C)C(C)C)C(C)C)C(C)C)C(=O)N[C@@H](Cc1c[nH]c2ccccc12)C(=O)N[C@H](CC(C)C)C(=O)N[C@@H](Cc1c[nH]c2ccccc12)C(=O)N[C@H](CC(C)C)C(=O)N[C@@H](Cc1c[nH]c2ccccc12)C(=O)N[C@H](CC(C)C)C(=O)N[C@@H](Cc1c[nH]c2ccccc12)C(=O)NCCO [compound 8982] (For-VGA[dV]A[dV]V[dD](NHMe)W[dL]W[dL]W[dL]W-NHCH2CH2OH) | 1.21 | 49.1 | - |
| CC(C)C[C@@H](NC(=O)[C@H](Cc1c[nH]c2ccccc12)NC(=O)[C@H](NC(=O)[C@H](Cc1c[nH]c2ccccc12)NC(=O)[C@H](NC(=O)[C@H](Cc1c[nH]c2ccccc12)NC(=O)[C@@H](CC(C)C)NC(=O)[C@@H](NC(=O)[C@H](NC(=O)[C@H](C)NC(=O)[C@H](NC(=O)[C@H](C)NC(=O)CNC(=O)[C@@H](NC=O)C(C)C)[C@H](C)O)C(C)C)C(C)C)C(C)C)C(C)C)C(=O)N[C@@H](Cc1c[nH]c2ccccc12)C(=O)NCCO [compound 10500] (For-VGA[dT]A[dV]V[dL]W[dV]W[dV]W[dL]W-NHCH2CH2OH) | 1.14 | 100.0 | - |
| CNC(=O)C[C@@H](NC(=O)[C@@H](NC(=O)[C@@H](CC(C)C)NC(=O)[C@H](C)NC(=O)[C@H](NC(=O)[C@H](C)NC(=O)CNC(=O)[C@@H](NC=O)C(C)C)C(C)C)C(C)C)C(=O)N[C@@H](Cc1c[nH]c2ccccc12)C(=O)N[C@H](CC(C)C)C(=O)N[C@@H](Cc1c[nH]c2ccccc12)C(=O)N[C@@H](C(=O)N[C@@H](Cc1c[nH]c2ccccc12)C(=O)N[C@@H](C(=O)N[C@@H](Cc1c[nH]c2ccccc12)C(=O)NCCO)C(C)C)C(C)C [compound 6822] (For-VGA[dV]A[dL]V[dD](NHMe)W[dL]W[dV]W[dV]W-NHCH2CH2OH) | 1.23 | 100.0 | - |
| CC(C)C[C@@H](NC(=O)[C@H](Cc1c[nH]c2ccccc12)NC(=O)[C@H](NC(=O)[C@H](Cc1c[nH]c2ccccc12)NC(=O)[C@H](NC(=O)[C@H](Cc1c[nH]c2ccccc12)NC(=O)[C@@H](CC(C)C)NC(=O)[C@@H](NC(=O)[C@H](NC(=O)[C@H](C)NC(=O)[C@H](NC(=O)[C@H](C)NC(=O)CNC(=O)[C@@H](NC=O)C(C)C)C(C)C)C(C)C)C(C)C)C(C)C)C(C)C)C(=O)N[C@@H](Cc1c[nH]c2ccccc12)C(=O)NCCO [compound 3111] (For-VGA[dV]A[dV]V[dL]W[dV]W[dV]W[dL]W-NHCH2CH2OH) | 1.12 | 8.2 | - |
| CC(C)C[C@@H](NC(=O)[C@H](Cc1c[nH]c2ccccc12)NC(=O)[C@H](NC(=O)[C@H](Cc1c[nH]c2ccccc12)NC(=O)[C@H](NC(=O)[C@@H](NC(=O)[C@H](NC(=O)[C@H](C)NC(=O)[C@H](NC(=O)[C@H](C)NC(=O)CNC(=O)[C@@H](NC=O)C(C)C)[C@H](C)O)C(C)C)C(C)C)C(C)C)C(C)C)C(=O)N[C@@H](Cc1c[nH]c2ccccc12)C(=O)N[C@@H](C(=O)N[C@@H](Cc1c[nH]c2ccccc12)C(=O)NCCO)C(C)C [compound 6820] (For-VGA[dT]A[dV]V[dV]W[dV]W[dL]W[dV]W-NHCH2CH2OH) | 1.20 | 100.0 | - |
| CC(C)C[C@@H](NC(=O)[C@H](C)NC(=O)[C@H](NC(=O)[C@H](C)NC(=O)CNC(=O)[C@@H](NC=O)C(C)C)C(C)C)C(=O)N[C@H](C(=O)N[C@H](CC(C)C)C(=O)N[C@@H](Cc1c[nH]c2ccccc12)C(=O)N[C@H](CC(C)C)C(=O)N[C@@H](Cc1c[nH]c2ccccc12)C(=O)N[C@H](CC(C)C)C(=O)N[C@@H](Cc1c[nH]c2ccccc12)C(=O)N[C@H](CC(C)C)C(=O)N[C@@H](Cc1c[nH]c2ccccc12)C(=O)NCCO)C(C)C [compound 12877] (For-VGA[dV]A[dL]V[dL]W[dL]W[dL]W[dL]W-NHCH2CH2OH) | 1.04 | 4.7 | - |
| CC(C)C[C@@H](NC(=O)[C@H](C)NC(=O)[C@H](NC(=O)[C@H](C)NC(=O)CNC(=O)[C@@H](NC=O)C(C)C)C(C)C)C(=O)N[C@H](C(=O)N[C@@H](C(=O)N[C@@H](Cc1c[nH]c2ccccc12)C(=O)N[C@H](CC(C)C)C(=O)N[C@@H](Cc1c[nH]c2ccccc12)C(=O)N[C@@H](C(=O)N[C@@H](Cc1c[nH]c2ccccc12)C(=O)N[C@H](CC(C)C)C(=O)N[C@@H](Cc1c[nH]c2ccccc12)C(=O)NCCO)C(C)C)C(C)C)C(C)C [compound 5241] (For-VGA[dV]A[dL]V[dV]W[dL]W[dV]W[dL]W-NHCH2CH2OH) | 1.39 | 12.2 | ++ |
| CC(C)C[C@@H](NC(=O)[C@H](C)NC(=O)[C@H](NC(=O)[C@H](C)NC(=O)CNC(=O)[C@@H](NC=O)C(C)C)[C@H](C)O)C(=O)N[C@H](C(=O)N[C@@H](C(=O)N[C@@H](Cc1c[nH]c2ccccc12)C(=O)N[C@@H](C(=O)N[C@@H](Cc1c[nH]c2ccccc12)C(=O)N[C@H](CC(C)C)C(=O)N[C@@H](Cc1c[nH]c2ccccc12)C(=O)N[C@@H](C(=O)N[C@@H](Cc1c[nH]c2ccccc12)C(=O)NCCO)C(C)C)C(C)C)C(C)C)C(C)C [compound 6857] (For-VGA[dT]A[dL]V[dV]W[dV]W[dL]W[dV]W-NHCH2CH2OH) | 1.16 | 100.0 | - |
